According to US10746739B2, “Identification of novel diagnostics and therapeutics by modulating RhoH” (Leukemia Therapeutics, LLC, priority 2015, dated 2020):

Test system: pre-existing HCL tumors (JOK-Luc)
Assay: Intraperitoneal JOK-Luc HCL xenograft treated with antibody, luminescence imaging
Assay type: in vivo
Settings: JOK-Luc injected into peritoneum of Hsd:Athymic Nude-Foxn1nu mice; antibody intraperitoneally at day 4 and day 6; imaged at day 7; compared with control IgG antibody
Procedure: JOK-1 cells were stably transfected with the plasmid pGL4.5[Luc2/CMV/Neo] that contains the firefly luciferase gene under control of the constitutive gene promoter of cytomegalovirus. This luciferase cell line was then injected into the peritoneum of mice of the strain Hsd:Athymic Nude-Foxn1^nu. After 3 days, mice were subjected to whole body imaging following intravenous injection of D-Luciferin. Those mice where tumor was detected were intraperitoneally injected at day 4 and day 6 with the anti-CD38 antibody SAR650984 or an IgG control antibody. At day 7, mice were again imaged. Depicted are superimposed luminescence and X-ray images of three mice injected with SAR650984 (CD38) and three injected with the control antibody (Ctrl).
Experiments performed with JOK-CD38-KO indicate that targeting CD38 expression in HCL may have therapeutic efficacy. This was tested using the parent of JOK-CD38-KO where CD38 expression remained intact. The parental line was engineered such that it constitutively produced luciferase and, therefore, could be visualized by luminescence in the presence of luciferin. […]
The role of CD38 in HCL was assessed using 5×10^6 of the cell line pools JOK-CD38-WT or JOK-CD38-KO injected subcutaneously into male or female mice that were 6-8 weeks old and of the strain NOD.Cg-Prkdc^scid IL2rγ^tm1Wj1/SzJ (Jackson Laboratory, Bar Harbor, Me., USA). […]

Q: With “SAR650984: humanized anti-CD38 antibody SAR650984 (Sanofi Oncology)” as the substance, how does the “effect on pre-existing HCL tumors by luminescence imaging” value read?
A: tended to be reduced
